In ChEMBL document CHEMBL3352551, “Synthesis and biological evaluation of novel allosteric enhancers of the A1 adenosine receptor based on 2-amino-3-(4'-chlorobenzoyl)-4-substituted-5-arylethynyl thiophene” (J Med Chem, 2014):
Calls of active or inactive are those of the source. No cut-off for these calls is given here.

Experiments:
[1] = target: T1, Adenosine receptor A1 (Homo sapiens) (UniProt P30542); test: Allosteric enhancer activity at human adenosine A1 receptor expressed in CHO cells assessed as inhibition of forskolin-induced cAMP production at 10 uM; assay type: functional, cell-based
T1 sequence (whole entry): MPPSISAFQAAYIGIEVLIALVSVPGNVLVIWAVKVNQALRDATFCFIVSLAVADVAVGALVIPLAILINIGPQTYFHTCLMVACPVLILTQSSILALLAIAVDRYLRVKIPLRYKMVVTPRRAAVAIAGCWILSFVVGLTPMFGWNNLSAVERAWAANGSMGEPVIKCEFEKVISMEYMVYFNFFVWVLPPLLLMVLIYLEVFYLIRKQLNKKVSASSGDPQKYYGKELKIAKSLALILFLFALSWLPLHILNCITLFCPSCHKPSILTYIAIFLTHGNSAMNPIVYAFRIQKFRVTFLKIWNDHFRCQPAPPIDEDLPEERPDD

[2] = target: T1, Adenosine receptor A1 (Homo sapiens); test: Allosteric enhancer activity at human adenosine A1 receptor expressed in CHO cells assessed as inhibition of forskolin-induced cAMP production at 100 nM in presence of 1 pM CCPA; assay type: functional, cell-based
[3] = target: T1, Adenosine receptor A1 (Homo sapiens); test: Displacement of [3H]DPCPX from human adenosine A1 receptor expressed in CHO cell membranes at 10 uM
[4] = target: Adenosine receptor A2a (Homo sapiens) (UniProt P29274); test: Displacement of [3H]ZM241385 from human adenosine A2A receptor expressed in CHO cell membranes at 10 uM
[5] = target: T2, Adenosine receptor A3 (Homo sapiens) (UniProt P0DMS8); test: Displacement of [3H]MRE-3008-F20 from human adenosine 3 receptor expressed in CHO cell membranes at 10 uM
T2 sequence (whole entry): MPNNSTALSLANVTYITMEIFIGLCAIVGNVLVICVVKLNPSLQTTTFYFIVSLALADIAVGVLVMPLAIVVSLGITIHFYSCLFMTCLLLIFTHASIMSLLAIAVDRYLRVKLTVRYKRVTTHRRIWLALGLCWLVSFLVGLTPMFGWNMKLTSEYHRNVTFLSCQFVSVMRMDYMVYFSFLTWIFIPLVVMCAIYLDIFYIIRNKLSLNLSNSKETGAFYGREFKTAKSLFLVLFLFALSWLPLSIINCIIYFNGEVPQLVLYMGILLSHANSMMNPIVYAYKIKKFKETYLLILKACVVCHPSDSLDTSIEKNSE

[6] = target: T1, Adenosine receptor A1 (Homo sapiens); test: Allosteric enhancer activity at human adenosine A1 receptor expressed in CHO cell membranes assessed as shift in [3H]CCPA Bmax level at 10 uM by saturation binding assay
[7] = target: T1, Adenosine receptor A1 (Homo sapiens); test: Allosteric enhancer activity at human adenosine A1 receptor expressed in CHO cell membranes assessed as shift in CCPA binding Ki level at 10 uM by [3H]DPCPX competition binding assay
[8] = target: T1, Adenosine receptor A1 (Homo sapiens); test: Allosteric enhancer activity at human adenosine A1 receptor expressed in CHO cell membranes assessed as shift in [3H]CCPA Kd level at 10 uM by saturation binding assay

Adenosine receptor A2a (Homo sapiens), sequence (P29274 whole entry): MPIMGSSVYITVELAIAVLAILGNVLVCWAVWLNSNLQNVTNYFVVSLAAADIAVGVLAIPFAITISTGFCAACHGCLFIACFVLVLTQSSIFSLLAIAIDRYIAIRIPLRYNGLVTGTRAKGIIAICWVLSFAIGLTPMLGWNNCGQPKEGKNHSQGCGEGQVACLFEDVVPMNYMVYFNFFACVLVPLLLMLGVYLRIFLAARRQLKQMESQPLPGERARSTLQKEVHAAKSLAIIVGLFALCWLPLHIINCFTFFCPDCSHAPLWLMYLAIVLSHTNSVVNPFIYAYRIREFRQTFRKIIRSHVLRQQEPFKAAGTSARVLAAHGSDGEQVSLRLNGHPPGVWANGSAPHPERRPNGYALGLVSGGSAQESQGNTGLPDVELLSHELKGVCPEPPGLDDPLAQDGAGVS

| Structure (SMILES) | inhibition [1] [%] | inhibition [2] [%] | inhibition [3] [%] | inhibition [4] [%] | inhibition [5] [%] | fold change (FC) [6] | fold change (FC) [7] | Activity [8] |
| --- | --- | --- | --- | --- | --- | --- | --- | --- |
| Nc1sc(C#Cc2ccccc2)c(CN(C2CCCCC2)C2CCCCC2)c1C(=O)c1ccc(Cl)cc1 | 10 | 19 | < 15 | < 15 | < 15 | 1.2 | 3.7 | – |
| Nc1sc(CCc2ccccc2)cc1C(=O)c1ccc(Cl)cc1 | 22 | 20 | < 15 | < 15 | < 15 | 1.7 | 1.3 | – |
| Nc1sc(CCc2ccccc2)c(-c2ccccc2)c1C(=O)c1ccc(Cl)cc1 | 25 | 24 | < 15 | < 15 | < 15 | 2.2 | 1.6 | – |
| CCCCCC#Cc1sc(N)c(C(=O)c2ccc(Cl)cc2)c1CC(C)(C)C | 66 | 69 | < 15 | < 15 | < 15 | 6.3 | 4.1 | inactive |
| Nc1sc(C#Cc2ccccc2)c(CN2CCN(c3ccc(Cl)cc3)CC2)c1C(=O)c1ccc(Cl)cc1 | 35 | 35 | < 15 | < 15 | < 15 | 3.4 | 3.6 | – |
| Nc1sc(C#Cc2ccccc2)c(CN2CCN(c3ccc(Cl)c(Cl)c3)CC2)c1C(=O)c1ccc(Cl)cc1 | 22 | 24 | < 15 | < 15 | < 15 | 2.1 | 1.7 | – |
| Cc1c(CCc2ccccc2)sc(N)c1C(=O)c1ccc(Cl)cc1 | 28 | 27 | < 15 | < 15 | < 15 | 2.2 | 1.6 | – |
| Nc1sc(C#Cc2ccccc2)c(CN2CCN(c3ccccc3)CC2)c1C(=O)c1ccc(Cl)cc1 | 29 | 31 | < 15 | < 15 | < 15 | 2.8 | 2.8 | – |
| COc1ccc(C#Cc2sc(N)c(C(=O)c3ccc(Cl)cc3)c2CC(C)(C)C)cc1OC | 72 | 74 | < 15 | < 15 | < 15 | 7.1 | 6.8 | – |
| Nc1sc(C#Cc2ccccc2)c(CN2CCN(c3ccc(F)cc3)CC2)c1C(=O)c1ccc(Cl)cc1 | 37 | 38 | < 15 | < 15 | < 15 | 3.9 | 3.9 | – |
| Nc1sc(C#Cc2ccccc2)c(CN2CCN(c3ccc(Cl)c(C(F)(F)F)c3)CC2)c1C(=O)c1ccc(Cl)cc1 | 30 | 36 | < 15 | < 15 | < 15 | 2.7 | 2.4 | – |
| Nc1sc(C#Cc2ccccc2)c(CN2CCN(c3ccc(C(F)(F)F)cc3)CC2)c1C(=O)c1ccc(Cl)cc1 | 31 | 33 | < 15 | < 15 | < 15 | 2.9 | 3 | – |
| Nc1sc(C#Cc2ccccc2)cc1C(=O)c1ccc(Cl)cc1 | 20 | 25 | < 15 | < 15 | < 15 | 2 | 1.5 | – |
| CCCCCc1ccc(C#Cc2sc(N)c(C(=O)c3ccc(Cl)cc3)c2CC(C)(C)C)cc1 | 60 | 62 | < 15 | < 15 | < 15 | 5.5 | 3.7 | – |
| Nc1sc(-c2ccccc2)c(CN(C2CCCCC2)C2CCCCC2)c1C(=O)c1ccc(Cl)cc1 | – | – | – | – | – | 3.5 | 3.2 | – |
| CC(C)(C)Cc1c(C#CC2CCCCC2)sc(N)c1C(=O)c1ccc(Cl)cc1 | 67 | 71 | < 15 | < 15 | < 15 | 8 | 4.8 | – |
| Cc1cc(C)c(C#Cc2sc(N)c(C(=O)c3ccc(Cl)cc3)c2CC(C)(C)C)cc1C | 68 | 67 | < 15 | < 15 | < 15 | 7 | 7.5 | – |
| Cc1c(C#Cc2ccccc2)sc(N)c1C(=O)c1ccc(Cl)cc1 | 27 | 34 | < 15 | < 15 | < 15 | 2.5 | 1.5 | – |
| Nc1sc(C#Cc2ccccc2)c(-c2ccccc2)c1C(=O)c1ccc(Cl)cc1 | 24 | 25 | < 15 | < 15 | < 15 | 1.9 | 1.5 | – |
| Nc1sc(-c2ccccc2)c(CN2CCN(c3ccccc3)CC2)c1C(=O)c1ccc(Cl)cc1 | – | – | – | – | – | 11.5 | 8.3 | – |

Results, then the compound that gave them:

| inhibition [1] [%] | inhibition [2] [%] | inhibition [3] [%] | inhibition [4] [%] | inhibition [5] [%] | fold change (FC) [6] | fold change (FC) [7] | Activity [8] | Structure (SMILES) |
| --- | --- | --- | --- | --- | --- | --- | --- | --- |
| 71 | 79 | < 15 | < 15 | < 15 | 7.4 | 8.2 | inactive | COc1ccc(C#Cc2sc(N)c(C(=O)c3ccc(Cl)cc3)c2CC(C)(C)C)cc1 |
| 43 | 45 | < 15 | < 15 | < 15 | 5 | 3.8 | – | Cc1ccc(CCc2sc(N)c(C(=O)c3ccc(Cl)cc3)c2CC(C)(C)C)cc1 |
| 31 | 36 | < 15 | < 15 | < 15 | 2.3 | 1.7 | – | Cc1ccc(C#Cc2sc(N)c(C(=O)c3ccc(Cl)cc3)c2C)cc1 |
| – | – | – | – | – | 6.1 | 4.3 | – | COc1ccc(-c2sc(N)c(C(=O)c3ccc(Cl)cc3)c2CC(C)(C)C)cc1 |
| – | – | – | – | – | 6.4 | 6 | – | Cc1ccc(-c2sc(N)c(C(=O)c3ccc(Cl)cc3)c2CC(C)(C)C)cc1 |
| 60 | 63 | < 15 | < 15 | < 15 | 5.7 | 3.9 | – | CC(C)(C)Cc1c(C#Cc2ccsc2)sc(N)c1C(=O)c1ccc(Cl)cc1 |
| 40 | 41 | < 15 | < 15 | < 15 | 3.3 | 3.5 | – | CC(C)(C)Cc1c(CCc2ccccc2)sc(N)c1C(=O)c1ccc(Cl)cc1 |
| 62 | 66 | < 15 | < 15 | < 15 | 6.2 | 4 | – | Cc1ccc(C)c(C#Cc2sc(N)c(C(=O)c3ccc(Cl)cc3)c2CC(C)(C)C)c1 |
| 68 | 71 | < 15 | < 15 | < 15 | 7.5 | 7.1 | – | Cc1cccc(C#Cc2sc(N)c(C(=O)c3ccc(Cl)cc3)c2CC(C)(C)C)c1 |
| 70 | 73 | < 15 | < 15 | < 15 | 7.2 | 7.5 | – | Cc1ccc(C#Cc2sc(N)c(C(=O)c3ccc(Cl)cc3)c2CC(C)(C)C)cc1 |
| – | – | – | – | – | 6.9 | 4.8 | – | CC(C)(C)Cc1c(-c2ccccc2)sc(N)c1C(=O)c1ccc(Cl)cc1 |
